From patent US20160113895A1, “Novel Use of Adapalene in Treating Esophageal Cancer and Gastrointestinal Stromal Tumor” (Biodelight Biotech Inc., priority 2013, published 2016)

Tests used:
H1299 = test: 2D cell proliferation assay (Alamar Blue), H1299; assay type: cell-based, human; details: Homo sapiens, NCI-H1299; 2D, H1299, 72 h; read-out: IC50
From the text: (§1) Nsl-8 was subjected to 2D cell proliferation assays using four NSCLC cell lines (A549 (human adenocarcinomic alveolar basal epithelial cells with k-ras gene mutation), H1299 (human non-small cell lung carcinoma cell line with p53 mutation), H460 (human non-small cell lung carcinoma cell line with k-ras gene mutation), and HCC827 (human NSCLC cells with EGFR mutation of deletion from E746 to A750)) and the results were presented in Table 2. There were eight concentrations used for each drug for determining its IC50. […]. Actinomycin D was a chemotherapeutic drug simply used as a quality control for all the experiments.
(§2) In the 2D cell proliferation assay, cells were cultured in DMEM containing 10% FCS and Penicillin/Streptomycin. For the assays, cells were seeded in 150 μL medium on a 96-well cell culture plate and incubated at 37° C. overnight before the compounds were added. Compounds were prepared as predilution which was 16 fold concentrated to the final assay concentration. A day after cell seeding, 10 μL of prediluted compounds was added to the cells (1:16 dilution). Treatment of cells with 0.1% DMSO or 1% DMSO (for the two top concentrations of nsl-8) and 1.0E-05 M Staurosporine was served as high control (100% viability) and low control (0% viability), respectively. Measurement of the impact of compounds on cell viability was performed as follows: 5000 cells (A549 and HCC827) or 2500 cells (H1299 and H460) were seeded in the inner wells of 96-well-plates in 150 μL complete medium. Next day, compounds were added to the medium to reach the final concentration and then incubated at 37° C. in 5% or 10% CO2 depending on the medium for 72 h. Subsequently 10 μL Alamar Blue reagent was added and fluorescence at 590 nm was measured after 5 h incubation at 37° C. in 5% CO2 using a fluorometer.
(§3) Raw data were converted into percent cell viability relative to high control (solvent 0.1% DMSO or 1% DMSO for the two top concentrations of drug nsl-8) and low control (1.0E-05 M Staurosporine), which were set to 100% and 0%, respectively.

HCC827 = test: 3D cell proliferation assay (soft agar), HCC827; assay type: cell-based, human; details: Homo sapiens, 3D soft agar
Method: Drug nsl-8 was further subjected to a 3D cell proliferation assay for assessing its potential in inhibiting the growth of NSCLC tumors. The same four NSCLC cell lines used in 2D proliferation assays were grown in soft agar and the drug was added after the agar has solidified. The drug added cells were then incubated several days until colonies have formed in the solvent control. Subsequently, Alamar Blue which was a cell viability reagent was added and the corresponding fluorescence released was measured as an indirect quantification of colony growth in soft agar.
For each cell line, some 96 well culture plates were prepared. 100 μL of the soft agar bottom layer (0.6% final concentration in complete medium) was poured and left to solidify. 50 μL of the soft agar top layer (0.4% final concentration) containing the corresponding cells and cell number were then added on top, solidified and such 96 well plates were incubated overnight at 37° C. in 10% CO2. Next day, drugs were added at indicated final concentrations into the inner wells of the plate. Subsequently, the assays were incubated in cell culture incubators for the indicated period of time. Finally, the assays were developed using Alamar Blue and upon 3-5 h of incubation at 37 ° C. fluorescence intensity was determined (excitation: 560 nm, emission: 590 nm). […]

H460 = test: 2D cell proliferation assay (Alamar Blue), H460; assay type: cell-based, human; details: Homo sapiens, NCI-H460; 2D, H460, 72 h; read-out: IC50
From the text: as §1, §2, §3

[1] = target: T1, recombinant wild type human EGFR kinase domain (Homo sapiens, UniProt P00533); test: Radiometric protein kinase enzymatic assay; assay type: biochemical; details: text value (FIG. 1)
T1 construct: A recombinant wild type human EGFR kinase domain expressed in Sf9 insect cells; GST; made in house; host or cells: Sf9 insect cells
T1 sequence (P00533 712-979 limits assumed): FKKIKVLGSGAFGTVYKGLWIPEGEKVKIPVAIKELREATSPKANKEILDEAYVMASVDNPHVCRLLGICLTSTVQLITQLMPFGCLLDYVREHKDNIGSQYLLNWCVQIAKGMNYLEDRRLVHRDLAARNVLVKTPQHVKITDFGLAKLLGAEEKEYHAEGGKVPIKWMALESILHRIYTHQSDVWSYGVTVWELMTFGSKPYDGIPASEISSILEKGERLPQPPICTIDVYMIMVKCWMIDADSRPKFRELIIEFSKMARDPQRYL
From the text: Except Tarceva® or Erlotinib which was purchased from LC Laboratories, all the screened compounds were purchased from Sigma-Aldrich. A recombinant wild type human EGFR kinase domain expressed in Sf9 insect cells as a GST-fusion protein was used in the enzymatic assay. The recombinant protein was purified by a GSH-affinity column and the purity of the protein was examined by SDS-PAGE/Coomassie staining and the identity was checked by mass spectroscopy. A radiometric protein kinase assay was used for measuring the kinase activity of the EGFR protein kinase. All the assays were performed in 96-well FlashPlates™ from PerkinElmer (Boston, Mass., USA) in a 50 µL, reaction volume. […] The reaction cocktails were incubated at 30° C. for 60 minutes. […] Incorporation of ^33Pi was determined with a microplate scintillation counter. […]
The median value of the counts in column 1 (n=8) of each assay plate was defined as “low control”. This value reflects unspecific binding of radioactivity to the plate in the absence of a protein kinase but in the presence of the substrate. […] The residual activity (in %) for each well of a particular plate was calculated by using the following formula: […]
The residual activities for each concentration and the drug IC50 values were calculated using GraphPad Prism software. […]

A549 = test: 2D cell proliferation assay (Alamar Blue), A549; assay type: cell-based, human; details: Homo sapiens; 2D, A549, 72 h; read-out: IC50
From the text: as §1, §2, §3

`COc1ccc(-c2ccc3cc(C(=O)O)ccc3c2)cc1C12CC3CC(CC(C3)C1)C2` [nsl-8, 6-[3-(1-adamantyl)-4-methoxyphenyl]-2-naphthalenecarboxylic acid] was tested, and the IC50 (H1299) was 6.5 µM, the IC50 (HCC827) was 7.2 µM and the IC50 (H460) was 2 µM. The IC50 [1] was 0.515 µM and the IC50 (A549) was 5.4 µM.
